Measurements published in ChEMBL document CHEMBL1136823, “Lead discovery of alpha,beta-unsaturated sulfones from a combinatorial library as inhibitors of inducible VCAM-1 expression” (Bioorg Med Chem Lett, 2003).

Assay: In vitro inhibition of inducible vascular cell adhesion molecule-1 (VCAM-1) expression in Human aortic endothelial cells (HAEC); call rule not given here
Format: functional, cell-based

Compound | IC50
CC(=O)OCCS(=O)(=O)c1cccc(N)c1 | 10 µM
CCCCCCC/C=C/C(=O)Nc1cccc(S(=O)(=O)CCO)c1 | 23 µM
CCCCCC#CC(=O)OCCS(=O)(=O)c1cccc(N)c1 | 6 µM
C=CC(=O)OCCS(=O)(=O)c1ccccc1 | 7 µM
CCCCC/C=C/C(=O)OCCS(=O)(=O)c1ccccc1 | 17 µM
CC(=O)Nc1cccc(S(=O)(=O)CCOC(C)=O)c1 | 4 µM
C=CS(C)(=O)=O | 14 µM
CCCCCC#CC(=O)Nc1cccc(S(=O)(=O)CCO)c1 | 20 µM
CC(=O)OCCS(=O)(=O)c1ccccc1 | 12 µM
O=S(=O)(CCCl)c1ccccc1 | 2 µM
CCCCC/C=C/C(=O)OCCS(=O)(=O)c1cccc(N)c1 | 17 µM
O=S1(=O)C=Cc2ccccc21 | 4 µM
C=CS(=O)(=O)c1cccc(NCCCCCCCC)c1 | 29 µM
CCCCCCC/C=C/C(=O)OCCS(=O)(=O)c1cccc(N)c1 | 28 µM
C=CS(=O)(=O)c1ccccc1 [(ETHENYLSULFONYL)BENZENE] | 2 µM

Assay: In vitro inhibition of inducible vascular cell adhesion molecule-1 (VCAM-1) expression in Human aortic endothelial cells (HAEC); NE denotes no effect
Format: functional, cell-based

Compound | IC50
CCOC(=O)CNCCS(=O)(=O)c1ccccc1 | Not Active
O=S(=O)(c1ccccc1)c1cccs1 | Not Active
COC(=O)CS(=O)(=O)c1ccccc1 | Not Active
CCCOCCS(=O)(=O)c1cccc(N)c1 | Not Active
CCS(=O)(=O)c1ccccc1 | Not Active
Nc1cccc(S(=O)(=O)CCO)c1 | Not Active
CCOCCS(=O)(=O)c1ccccc1 | Not Active
CCN(CC)CCS(=O)(=O)c1ccccc1 | Not Active
C=C[S+]([O-])c1ccccc1 (configuration not stated) | Not Active
O=S(=O)(CCNCc1ccccc1)c1ccccc1 | Not Active
CCCCCCCCOCCS(=O)(=O)c1ccccc1 | Not Active
CCCNc1cccc(S(=O)(=O)CCOC(C)=O)c1 | Not Active
O=S(=O)(c1ccccc1)c1ccsc1 | Not Active
C=CCCS(=O)(=O)c1ccccc1 | Not Active
O=C1c2ccccc2C(=O)N1CCS(=O)(=O)c1ccccc1 | Not Active
CCCCCCCCNc1cccc(S(=O)(=O)CCOC(C)=O)c1 | Not Active
CC(=O)CCCS(=O)(=O)c1ccccc1 | Not Active
